Test results: ChEMBL document CHEMBL2169844, “6β-N-heterocyclic substituted naltrexamine derivative NAP as a potential lead to develop peripheral mu opioid receptor selective antagonists” (Bioorg Med Chem Lett, 2012)
Calls of active or inactive are those of the source. The rule behind the calls is not given here.

Assays:
[1] = test system: Mus musculus; assay: Increase in gastrointestinal motility in sc dosed morphine-pelleted mouse administered 20 mins before forced charcoal meal measured after 30 mins; format: functional
[2] = test system: Mus musculus; assay: Increase in gastrointestinal motility in morphine-pelleted mouse at 0.3 mg/kg, sc administered 20 mins before forced charcoal meal measured after 30 mins; format: functional, organism-based; design: dose 0.3 mg/kg
[3] = test system: Mus musculus; assay: Increase in gastrointestinal motility in morphine-pelleted mouse at 0.003 to 0.03 mg/kg, sc administered 20 mins before forced charcoal meal measured after 30 mins; format: functional, organism-based
[4] = test system: Mus musculus; assay: Toxicity in mouse assessed as lower locomotory activity measured as walking at 32 mg/kg, iv followed by morphine at 32 mg/kg, sc; format: organism-based; settings: in vivo
[5] = test system: Mus musculus; assay: Ratio of ED50 for MNTX to compound ED50 for morphine-pelleted mouse administered 20 mins before forced charcoal meal measured after 30 mins; format: functional
[6] = target: Mu-type opioid receptor (Rattus norvegicus) (UniProt P33535); assay: Partial agonist activity at mu opioid receptor in rat thalamus assessed as stimulation of [35S]-GTP[gammaS]-binding relative to DAMGO; format: functional, tissue-based
Mu-type opioid receptor (Rattus norvegicus), sequence (P33535 whole entry): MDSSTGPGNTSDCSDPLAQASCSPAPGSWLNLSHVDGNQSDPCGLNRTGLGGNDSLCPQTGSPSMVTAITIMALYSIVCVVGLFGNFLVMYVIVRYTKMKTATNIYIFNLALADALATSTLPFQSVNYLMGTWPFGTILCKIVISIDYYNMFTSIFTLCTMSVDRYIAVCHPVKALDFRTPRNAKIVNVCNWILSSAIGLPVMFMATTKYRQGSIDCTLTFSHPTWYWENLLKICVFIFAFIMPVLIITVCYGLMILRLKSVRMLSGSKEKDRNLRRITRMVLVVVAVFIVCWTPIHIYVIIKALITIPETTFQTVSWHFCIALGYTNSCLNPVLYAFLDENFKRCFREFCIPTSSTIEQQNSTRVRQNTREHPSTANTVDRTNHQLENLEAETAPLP

[7] = test system: Mus musculus; assay: Increase in gastrointestinal motility in morphine-pelleted mouse at 1 mg/kg, sc administered 20 mins before forced charcoal meal measured after 30 mins; format: functional, organism-based; design: dose 1 mg/kg
[8] = test system: Mus musculus; assay: Increase in gastrointestinal motility in morphine-pelleted mouse assessed as increase in stool weight at 0.3 to 1 mg/kg, sc administered 20 mins before forced charcoal meal measured after 30 mins; format: functional, organism-based
[9] = species: Mus musculus; assay: Ratio of naloxone to compound for toxicity in mouse assessed as reduced wet dog shakes; format: organism-based; settings: in vivo
[10] = test system: Mus musculus; assay: Toxicity in mouse assessed as high locomotory activity measured as jumping up to 50 mg/kg, iv followed by morphine at 32 mg/kg, sc; format: organism-based; settings: in vivo
[11] = test system: Mus musculus; assay: Toxicity in mouse assessed as wet dog shakes at 50 mg/kg, iv followed by morphine at 32 mg/kg, sc; format: organism-based; settings: in vivo
[12] = test system: Mus musculus; assay: Increase in gastrointestinal motility in morphine-pelleted mouse assessed as decrease in stool weight at 0.3 to 1 mg/kg, sc administered 20 mins before forced charcoal meal measured after 30 mins; format: functional, organism-based
[13] = test system: Mus musculus; assay: Toxicity in morphine-pelleted mouse assessed as diarrhea at 0.3 mg/kg, sc; format: organism-based; design: dose 0.3 mg/kg, route subcutaneous; settings: in vivo
[14] = species: Mus musculus; assay: Ratio of ED50 for increase in gastrointestinal motility in morphine-pelleted mouse to ED50 for toxicity in mouse assessed as lower locomotory activity; format: functional
[15] = test system: Mus musculus; assay: Increase in gastrointestinal motility in morphine-pelleted mouse assessed as decrease in stool weight at 0.3 to 3 mg/kg, sc administered 20 mins before forced charcoal meal measured after 30 mins; format: functional, organism-based
[16] = test system: Mus musculus; assay: Increase in gastrointestinal motility in morphine-naive mouse assessed as decrease in stool weight at 0.3 mg/kg, sc administered 20 mins before forced charcoal meal measured after 30 mins; format: functional, organism-based; design: dose 0.3 mg/kg
[17] = test system: Mus musculus; assay: Increase in gastrointestinal motility in morphine-naive mouse assessed as decrease in stool weight at 30 mg/kg, sc administered 20 mins before forced charcoal meal measured after 30 mins; format: functional, organism-based; design: dose 30 mg/kg
[18] = test system: Mus musculus; assay: Increase in gastrointestinal motility in morphine-pelleted mouse at 3 mg/kg, sc administered 20 mins before forced charcoal meal measured after 30 mins; format: functional, organism-based; design: dose 3 mg/kg
[19] = test system: Mus musculus; assay: Increase in gastrointestinal motility in morphine-naive mouse assessed as decrease in stool weight at 3 mg/kg, sc administered 20 mins before forced charcoal meal measured after 30 mins; format: functional, organism-based; design: dose 3 mg/kg
[20] = species: Mus musculus; assay: Ratio of naltrexone to compound for toxicity in mouse assessed as reduced wet dog shakes; format: organism-based; settings: in vivo

## C[N+]1(CC2CC2)CC[C@]23c4c5ccc(O)c4O[C@H]2C(=O)CC[C@@]3(O)[C@H]1C5 (stereo partly specified) [METHYLNALTREXONE]
[1]
  ED50: 2.5 mg/kg

## O=C(N[C@@H]1CC[C@@]2(O)[C@H]3Cc4ccc(O)c5c4[C@@]2(CCN3CC2CC2)[C@H]1O5)c1ccncc1
[2]
  Activity: Active
[3]
  Activity: inactive
[4]
  Activity: Toxic
[5]
  Ratio ED50: 300
[6]
  Emax: 16.7%
[7]
  Activity: Active
[8]
  Activity: inactive
[9]
  Ratio: 50
[10]
  Activity: Toxic
[11]
  Activity: Toxic
[12]
  Activity: Active
[13]
  Activity: Toxic
[14]
  Ratio ED50: >3600
[15]
  Activity: inactive
[16]
  Activity: inactive
[17]
  Activity: inactive
[18]
  Activity: Active
[1]
  ED50: 0.0088 mg/kg
[19]
  Activity: Active
[20]
  Ratio: 50
